{"source": "paper PMC12525168", "about": "“Targeting carA Using Optimized Antisense Peptide Nucleic Acid–Cell-Penetrating Peptide Conjugates in Acinetobacter baumannii: A Novel Antibacterial Approach” (International Journal of Molecular Sciences, 2025)", "key": {"[1]": {"system": "A. baumannii ATCC 17978", "assay": "MIC by broth microdilution (CLSI)", "format": "cell-based, Acinetobacter baumannii", "settings": "CAMHB with TES buffer, 37 °C, 18–20 h, at least two independent experiments in duplicate", "from_the_text": "CPP–PNA conjugates were synthesized by HLB […] Co., LTD. The binding sites within A. baumannii ATCC 17978 were predicted and analyzed using Geneious Prime (version 1 February 2025), enabling precise identification of target regions for subsequent antisense PNA design. Specifically, α-PNA modifications introduced arginine, while γ-PNA modifications incorporated guanidino-lysine. The diverse CPP–PNA and α- and γ-modified PNA oligomers were generated via solid-phase peptide synthesis using benzothiazole sulfonyl and standard fluorenylmethyloxycarbonyl chemistry procedures on an automatic synthesizer (HLB-[…]). The synthesized PNA oligomers were cleaved from the solid support resin using a mixed solution containing trifluoroacetic acid. The PNA mixture separated from the solid support was purified using reverse-phase high-performance liquid chromatography, and the purity and molecular weight were determined and confirmed using high-performance liquid chromatography and matrix-assisted laser desorption/ionization time-of-flight mass spectrometry (Figures S1 and S2). The MIC of each CPP–PNA conjugate was determined using the broth microdilution method in accordance with the Clinical and Laboratory Standards Institute guidelines. A. baumannii ATCC 17978 was used as the test strain. The CPP–PNA conjugates were tested at concentrations of […], 3.125, 6.25, 12.5, 25, and 50 µM in 100 µL of cation-adjusted Mueller–Hinton broth with N-Tris (hydroxymethyl) methyl-2-aminoethanesulfonic acid buffer (CAMHB; T3462; Thermo Fisher Scientific, Waltham, MA, USA). The microdilution plates were incubated at 37 °C for 18–20 h. A minimum of two independent experiments, each performed in duplicate, were conducted to ensure reproducibility."}, "[2]": {"system": "A. baumannii ATCC 17978", "assay": "Bactericidal test: colony count after treatment with 50 µM CPP–PNA", "format": "cell-based, Acinetobacter baumannii", "settings": "for Bactericidal activity in MBC assay (in words) / Average CFU: 50 µM CPP–PNA; for Average CFU: mean of two plates, plated 24 h; for Average CFU / MBC (CFU) in 50 µM CPP–PNA: 4 h at 37 °C; for MBC (CFU) in 50 µM CPP–PNA: 1 × 10^7 CFU/mL inoculum, 50 µL spread on Muller–Hinton agar, 24 h at 37 °C", "from_the_text": "Artificially synthesized CPP–PNA (carA, […]) conjugates were used to silence carA. Briefly, carA-specific oligonucleotides were identified from the genomic sequence of A. baumannii ATCC 17978 (CP049363.1). The CPP–PNA conjugates, namely KFFK (FFK)2–PNA, KKFK (FFK)2–PNA, and KKKK (FFK)2–PNA, were synthesized by HLB […] Co., LTD. (Daejeon, Republic of Korea). These conjugates were engineered to specifically bind to the translation initiation region of carA, which includes the TTG start codon and the Shine-Dalgarno sequence (TTTGGT) crucial to ribosomal interaction.\nTo prepare bacterial suspensions, cultures of A. baumannii ATCC 17978 were grown until the OD600 value reached 0.8. The CPP–PNA conjugates were prepared to achieve concentrations of 50 and 0 µM in a total volume of 100 µL per well in 96-well plates. Subsequently, 10 µL of the adjusted bacterial suspension was inoculated into each well (1 × 10^7 CFU/mL). The plates were then incubated at 37 °C for 4 h. Subsequently, 50 µL of each CPP–PNA conjugate-treated bacterial suspension was spread on Muller–Hinton agar plates, with each condition distributed across two plates. The plates were subsequently incubated at 37 °C for 24 h to enable bacterial growth and colony formation."}}, "data": [{"substance": "Control 3 (acpP): KFFK(FFK)2 conjugated to PNA TGATTTGCCAC targeting acpP [reference compound]", "values": [{"measurement": "MIC", "setting": "[1]", "result": 25, "unit": "µM"}]}, {"substance": "KFFK(FFK)2-TTACTGTTTAGAT: KFFK(FFK)2 conjugated to 13-mer PNA targeting carA stop codon (all peptide nucleic acid (PNA); KFFK(FFK)2 cell-penetrating peptide conjugated to the PNA, attachment site not given here)", "values": [{"measurement": "MIC", "setting": "[1]", "result": 50, "unit": "µM"}]}, {"substance": "Control 5 (rne): KFFK(FFK)2 conjugated to PNA ACGTTTCATGG targeting rne [reference compound]", "values": [{"measurement": "MIC", "setting": "[1]", "result": 50, "unit": "µM"}]}, {"substance": "KFFK(FFK)2-CGGGGGTGCTCAA: KFFK(FFK)2 conjugated to 13-mer PNA targeting carA start codon (all peptide nucleic acid (PNA); KFFK(FFK)2 cell-penetrating peptide conjugated to the PNA, attachment site not given here)", "values": [{"measurement": "MIC", "setting": "[1]", "result": ">50", "unit": "µM"}]}, {"substance": "KFFK(FFK)2-TCAAACCAAAGCT: KFFK(FFK)2 cell-penetrating peptide conjugated to unmodified 13-mer antisense PNA TCAAACCAAAGCT targeting carA RBS (all peptide nucleic acid (PNA); KFFK(FFK)2 peptide conjugated)", "values": [{"measurement": "MIC", "setting": "[1]", "result": 25, "unit": "µM"}, {"measurement": "Bactericidal activity in MBC assay (in words)", "setting": "[2]", "result": "No A. baumannii colonies were detected"}, {"measurement": "Average CFU", "setting": "[2]", "result": 0, "unit": "CFU"}, {"measurement": "MBC (CFU) in 50 µM CPP–PNA", "setting": "[2]; plate 1 of two", "result": 0, "unit": "CFU"}, {"measurement": "MBC (CFU) in 50 µM CPP–PNA", "setting": "[2]; plate 2 of two", "result": 0, "unit": "CFU"}]}, {"substance": "KFFK(FFK)2-TCAAA*CCA*AAGCT: KFFK(FFK)2 conjugated to γ-modified 13-mer PNA targeting carA RBS (TCAAACCAAAGCT; KFFK(FFK)2 peptide conjugate, γ-modified PNA, chemistry not fully specified)", "values": [{"measurement": "MIC", "setting": "[1]", "result": 25, "unit": "µM"}]}, {"substance": "Control 4 (ftsZ): KFFK(FFK)2 conjugated to PNA GAGGCCATGAC targeting ftsZ [reference compound]", "values": [{"measurement": "MIC", "setting": "[1]", "result": 50, "unit": "µM"}]}, {"substance": "KKFK(FFK)2-TCAAACCAAAGCT: KKFK(FFK)2 cell-penetrating peptide conjugated to 13-mer antisense PNA TCAAACCAAAGCT targeting carA (all peptide nucleic acid (PNA); KKFK(FFK)2 peptide conjugated)", "values": [{"measurement": "Average CFU", "setting": "[2]", "result": 10.5, "unit": "CFU"}, {"measurement": "MBC (CFU) in 50 µM CPP–PNA", "setting": "[2]; plate 1 of two", "result": 7, "unit": "CFU"}, {"measurement": "MBC (CFU) in 50 µM CPP–PNA", "setting": "[2]; plate 2 of two", "result": 14, "unit": "CFU"}]}, {"substance": "KKKK(FFK)2-TCAAACCAAAGCT: KKKK(FFK)2 cell-penetrating peptide conjugated to 13-mer antisense PNA TCAAACCAAAGCT targeting carA (all peptide nucleic acid (PNA); KKKK(FFK)2 peptide conjugated)", "values": [{"measurement": "Bactericidal activity in MBC assay (in words)", "setting": "[2]", "result": "no bactericidal activity"}, {"measurement": "Average CFU", "setting": "[2]", "result": "TNTC"}, {"measurement": "MBC (CFU) in 50 µM CPP–PNA", "setting": "[2]; plate 1 of two", "result": "TNTC"}, {"measurement": "MBC (CFU) in 50 µM CPP–PNA", "setting": "[2]; plate 2 of two", "result": "TNTC"}]}]}
